Results as given in PubChem BioAssay AID1259411 (Chemical Carcinogenesis Research Information System (CCRIS), 2018).
Active and inactive are the calls of the source. The rule behind the calls is not given here.

System: rodent carcinogenicity bioassays, tumor incidence
Assay: CCRIS carcinogenicity studies
Details: Dose: 0, Dose: 0
How it was run: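 NCI-built, expert-reviewed records of carcinogenicity and related test outcomes (mutagenicity, tumor promotion/inhibition) compiled from published and report sources, historical span 1985-2011, not updated.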

With `CC(=O)OCN(N=O)c1ccccc1` the carcinogen call (Species: HAMSTER, Strain/Sex: SYRIAN/FEMALE, Route: SUBCUTANEOUS, 1.56, 3.13 MG/KG/WK IN OLIVE OIL FOR LIFE (STUDY DURATION: 60 WK), 1.56, 3.13 MG/KG/WK IN OLIVE OIL FOR LIFE (STUDY DURATION: 60 WK), Tumor Site: Type of Lesion: INJECTION SITE: TUMOR) was “active; positive”, the carcinogen call (Species: HAMSTER, Strain/Sex: SYRIAN/FEMALE, Route: SUBCUTANEOUS, 6.25, 12.5 MG/KG/WK IN OLIVE OIL FOR 4 WK (STUDY DURATION: 60 WK), 6.25, 12.5 MG/KG/WK IN OLIVE OIL FOR 4 WK (STUDY DURATION: 60 WK)) was “inactive; negative” and the carcinogen call (Species: HAMSTER, Strain/Sex: SYRIAN/MALE, Route: SUBCUTANEOUS, 1.56, 3.13 MG/KG/WK IN OLIVE OIL FOR LIFE (STUDY DURATION: 60 WK), 1.56, 3.13 MG/KG/WK IN OLIVE OIL FOR LIFE (STUDY DURATION: 60 WK)) was “inactive; negative”. For the same molecule, the carcinogen call (Species: HAMSTER, Strain/Sex: SYRIAN/MALE, Route: SUBCUTANEOUS, 6.25, 12.5 MG/KG/WK IN OLIVE OIL FOR 4 WK (STUDY DURATION: 60 WK), 6.25, 12.5 MG/KG/WK IN OLIVE OIL FOR 4 WK (STUDY DURATION: 60 WK)) was “inactive; negative”.
With `O[C@@H]1[C@H]2O[C@H]2c2c(ccc3cc4ccc5ccccc5c4nc23)[C@H]1O` the carcinogen call (Species: MOUSE, Strain/Sex: CD-1/FEMALE, Route: INTRAPERITONEAL, 175 NMOL (TOTAL DOSE) ADMINISTERED AS 1/7 OF DOSE WITHIN 24 HR AFTER BIRTH, 2/7 OF DOSE AT 8 D OLD, 4/7 OF DOSE AT 15, Tumor Site: Type of Lesion: LIVER: TUMOR, LUNG: TUMOR) was “active; positive” and the carcinogen call (Species: MOUSE, Strain/Sex: CD-1/MALE, Route: INTRAPERITONEAL, 175 NMOL (TOTAL DOSE) ADMINISTERED AS 1/7 OF DOSE WITHIN 24 HR AFTER BIRTH, 2/7 OF DOSE AT 8 D OLD, 4/7 OF DOSE AT 15, Tumor Site: Type of Lesion: LIVER: TUMOR, LUNG: TUMOR) was “active; positive”.
In the case of `CC(O)CN(C)N=O` (centres undefined), the carcinogen call (Species: HAMSTER, Strain/Sex: SYRIAN/FEMALE, Route: GAVAGE, 1 MG IN 0.2 ML WATER 1/WK FOR 21 WK FOR A TOTAL DOSE OF 21 MG (STUDY DURATION: 45 WK), Tumor Site: Type of Lesion: LIVER: HEMANGIOSARCOMA OR HEMANGIOMA, LUNG: ALVEOLAR/BRONCHIOLAR ADENOMA, NASAL MUCOSA: CARCINOMA, Tumor Site: Type of Lesion: LIVER: HEMANGIOSARCOMA OR HEMANGIOMA, LUNG: ALVEOLAR/BRONCHIOLAR ADENOMA, NASAL MUCOSA: CARCINOMA) is reported as “active; positive”, the carcinogen call (Species: HAMSTER, Strain/Sex: SYRIAN/FEMALE, Route: GAVAGE, 5 MG IN 0.2 ML WATER FOR 4 WK THEN 2 MG 1/WK FOR 14 WK FOR A TOTAL DOSE OF 48 MG (STUDY DURATION: 45 WK), Tumor Site: Type of Lesion: LIVER: HEMANGIOSARCOMA, HEPATOCELLULAR ADENOMA, CHOLANGIOCELLULAR CARCINOMA, CHOLANGIOCELLULAR ADENOMA, PANCREAS: DUCTAL) is reported as “active; positive” and the carcinogen call (Species: RAT, Strain/Sex: F344/FEMALE, Route: GAVAGE, 4, 10 MG/WK FOR A TOTAL DOSE OF 0.6, 0.4 MMOL (STUDY DURATION: 50 WK), 4, 10 MG/WK FOR A TOTAL DOSE OF 0.6, 0.4 MMOL (STUDY DURATION: 50 WK), Tumor Site: Type of Lesion: ESOPHAGUS: TUMOR, KIDNEY: TUMOR, THYROID: TUMOR, LUNG: TUMOR, Tumor Site: Type of Lesion: ESOPHAGUS: TUMOR, KIDNEY: TUMOR, THYROID: TUMOR, LUNG: TUMOR) is reported as “active; positive”. The carcinogen call (Species: RAT, Strain/Sex: F344/MALE, Route: GAVAGE, 4 MG/WK FOR A TOTAL DOSE OF 0.6 MMOL (STUDY DURATION: 50 WK), Tumor Site: Type of Lesion: ESOPHAGUS: TUMOR, NASAL MUCOSA: TUMOR) was “active; positive” and the carcinogen call (Species: RAT, Strain/Sex: WISTAR/MALE, Route: INTRAPERITONEAL, 4.4, 8.8, 17.6 MG/KG IN 0.9% SALINE 1/WK FOR 12 WK (STUDY DURATION: 26 WK), 4.4, 8.8, 17.6 MG/KG IN 0.9% SALINE 1/WK FOR 12 WK (STUDY DURATION: 26 WK), Tumor Site: Type of Lesion: NASAL CAVITY: CARCINOMA, PAPILLOMA) was “active; positive”.
With `c1ccc2c(c1)-c1cccc3cccc-2c13` the carcinogen call (Species: MOUSE, Strain/Sex: B6C3F1/MALE, Route: INTRAPERITONEAL, 400 NMOL IN 35 µL DMSO ON DAYS 1 (1/7 TOTAL DOSE), 8 (2/7 TOTAL DOSE), AND 15 (4/7 TOTAL DOSE) AFTER BIRTH (STUDY DUR) was “inactive; negative”, the carcinogen call (Species: MOUSE, Strain/Sex: CD-1/FEMALE, Route: INTRAPERITONEAL, 3.46, 17.3 UMOL (TOTAL DOSE) IN DMSO ADMINISTERED ON DAYS 1, 8, AND 15 OF LIFE (STUDY DURATION: 52 WK), 3.46, 17.3 UMOL (TOTAL DOSE) IN DMSO ADMINISTERED ON DAYS 1, 8, AND 15 OF LIFE (STUDY DURATION: 52 WK), Tumor Site: Type of Lesion: LUNG: TUMOR) was “active; positive” and the carcinogen call (Species: MOUSE, Strain/Sex: CD-1/MALE, FEMALE, Route: INTRAPERITONEAL, 0.7, 1.75, 3.5 (TOTAL DOSE) ADMINISTERED TO NEWBORN MICE ON DAYS 1, 8, AND 15 OF AGE IN 1/7, 2/7, AND 4/7 DOSES, RESP, 0.7, 1.75, 3.5 (TOTAL DOSE) ADMINISTERED TO NEWBORN MICE ON DAYS 1, 8, AND 15 OF AGE IN 1/7, 2/7, AND 4/7 DOSES, RESP, Tumor Site: Type of Lesion: LUNG: ADENOMA OR ADENOCARCINOMA) was “active; positive”. For the same molecule, the carcinogen call (Species: MOUSE, Strain/Sex: CD-1/MALE, Route: INTRAPERITONEAL, 3.46, 17.3 UMOL (TOTAL DOSE) IN DMSO ADMINISTERED ON DAYS 1, 8, AND 15 OF LIFE (STUDY DURATION: 52 WK), 3.46, 17.3 UMOL (TOTAL DOSE) IN DMSO ADMINISTERED ON DAYS 1, 8, AND 15 OF LIFE (STUDY DURATION: 52 WK), Tumor Site: Type of Lesion: LUNG: TUMOR, LIVER: TUMOR) was “active; positive”, the carcinogen call (Species: MOUSE, Strain/Sex: ICR/FEMALE, Route: INTRAPERITONEAL, 257.6 UG TOTAL DOSE (36.8 UG/5 µL, 73.6 UG/10 µL, 147.2 UG/20 µL DMSO ON DAYS 1, 8 AND 15) ADMINISTERED TO NEWBORN AN, Tumor Site: Type of Lesion: LUNG: ADENOMA) was “active; positive” and the carcinogen call (Species: MOUSE, Strain/Sex: ICR/MALE, Route: INTRAPERITONEAL, 257.6 UG TOTAL DOSE (36.8 UG/5 µL, 73.6 UG/10 µL, 147.2 UG/20 µL DMSO ON DAYS 1, 8 AND 15) ADMINISTERED TO NEWBORN AN, Tumor Site: Type of Lesion: LUNG: ADENOMA) was “active; positive”. For the same molecule, the carcinogen call (Species: MOUSE, Strain/Sex: SWISS/FEMALE, Route: INTRAPERITONEAL, 100, 500 UG IN DMSO ON DAY 1 OF STUDY FOLLOWED BY 0, 200, 1000 UG ON DAY 8 THEN 0, 400, 2000 UG ON DAY 15 ADMINISTERE, 100, 500 UG IN DMSO ON DAY 1 OF STUDY FOLLOWED BY 0, 200, 1000 UG ON DAY 8 THEN 0, 400, 2000 UG ON DAY 15 ADMINISTERE, Tumor Site: Type of Lesion: LUNG: ADENOMA OR CARCINOMA) was “active; positive” and the carcinogen call (Species: MOUSE, Strain/Sex: SWISS/MALE, Route: INTRAPERITONEAL, 100, 500 UG IN DMSO ON DAY 1 OF STUDY FOLLOWED BY 0, 200, 1000 UG ON DAY 8 THEN 0, 400, 2000 UG ON DAY 15 ADMINISTERE, 100, 500 UG IN DMSO ON DAY 1 OF STUDY FOLLOWED BY 0, 200, 1000 UG ON DAY 8 THEN 0, 400, 2000 UG ON DAY 15 ADMINISTERE, Tumor Site: Type of Lesion: LUNG: ADENOMA OR CARCINOMA) was “active; positive”.
